Laboratory results published in patent US20020132817A1, “Heterocyclic compounds, their production and use” (priority 1998, published 2002).

Tests used:
substance P receptor = target: T1, substance P receptor (Homo sapiens, UniProt P25103); test: Radioligand receptor binding inhibitory activity using receptor from human lymphoblast cells (IM-9); conditions: 125I-BHSP radioligand, receptor from IM-9 cells, 25° C. for 30 minutes
T1 construct: The receptor was prepared from human lymphoblast cells (IM-9); endogenous in cells; host or cells: IM-9 human lymphoblast cells (membrane preparation)
T1 sequence (P25103 whole entry): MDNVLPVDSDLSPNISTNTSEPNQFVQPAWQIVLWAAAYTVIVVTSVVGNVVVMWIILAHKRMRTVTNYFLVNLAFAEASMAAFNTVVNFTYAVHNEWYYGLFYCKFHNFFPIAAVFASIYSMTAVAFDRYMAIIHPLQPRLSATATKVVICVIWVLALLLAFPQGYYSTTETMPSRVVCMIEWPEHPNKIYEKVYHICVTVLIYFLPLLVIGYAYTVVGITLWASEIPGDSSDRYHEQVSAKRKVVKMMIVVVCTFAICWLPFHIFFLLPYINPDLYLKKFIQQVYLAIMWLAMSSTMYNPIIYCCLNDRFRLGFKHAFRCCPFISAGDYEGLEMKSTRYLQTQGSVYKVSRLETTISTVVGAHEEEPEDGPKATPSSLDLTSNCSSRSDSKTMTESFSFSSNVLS
Method: Radioligand receptor binding inhibitory activity Binding inhibitory activity using receptor from human lymphoblast cells (IM-9)
The receptor was prepared from human lymphoblast cells (IM-9). IM-9 cells (2×10^5 cells/ml) were inoculated and incubated for 3 days (one liter), which was then subjected to centrifuge for 5 minutes at 500×g to obtain cell pellets. […] The residue was washed twice with 30 ml of the above-mentioned buffer, which was then preserved frozen (−80° C.) as a specimen of the receptor.
The specimen was suspended in a reaction buffer (50 mM Tri-HCl buffer (pH 7.4), 0.02% bovine serum albumin, 1 mM phenylmethylsulfonyl fluoride, […], […] bacitracin, 3 mM manganese chloride) and 100 ul portion was the suspension was used in the reaction. […] The amount of nonspecific binding was determined by adding substance P at a final concentration of 2×10^−6M. After the reaction, using a cell harvester (290 PHD, Cambridge Technology, Inc, U.S.A.), rapid filtration was carried out through a glass filter (GF/B, Whatman, U.S.A.) to stop the reaction. After washing three times with 250 ul of 50 mM of Tris-HCl buffer (pH 7.4) containing 0.02% bovine serum albumin, the radioactivity remaining on the filter was determined with a gamma counter. Before use, the filter was immersed in 0.1% polyethyleneimine for 24 hours and air-dried.

Structure (SMILES)	IC50 (substance P receptor) [nM]	melting point
Cc1ccc(-c2c3c(c(=O)n4c2C(=O)N(Cc2cc(C(F)(F)F)cc(C(F)(F)F)c2)CCCC4)CN(C)CC3)cc1 [Reference Example 64, 7-[3,5-Bis(trifluoromethyl)benzyl]-1,2,3,4,6,7,8,9,10,11-decahydro-2-methyl-5-(4-methylphenyl)-6,13-dioxo-13H-[1,4]diazocino[1,2-b][2,7]naphthyridine]	0.66	–
O=C(c1cc(-c2ccccc2)c2c(n1)OCCN(Cc1cc(C(F)(F)F)cc(C(F)(F)F)c1)C2=O)N1CCOCC1 [Reference Example 116, 4-[3,5-Bis(trifluoromethyl)benzyl]-2,3,4,5-tetrahydro-8-morpholinocarbonyl-5-oxo-6-phenylpyrido[3,2-f][1,4]oxazepine]	–	265 to 266 °C
CCCCNC(=O)c1cc(-c2ccccc2)c2c(n1)OCCN(Cc1cc(C(F)(F)F)cc(C(F)(F)F)c1)C2=O [Reference Example 114, 4-[3,5-Bis(trifluoromethyl)benzyl]-N-n-butyl-2,3,4,5-tetrahydro-5-oxo-6-phenylpyrido[3,2-f][1,4]oxazepine-8-carboxamide]	–	194 to 196 °C
Cc1cnc2c(c1-c1ccccc1)C(=O)N(Cc1cc(C(F)(F)F)cc(C(F)(F)F)c1)CCCN(C)C2=O [Reference Example 108, 6-[3,5-Bis(trifluoromethyl)benzyl]-6,7,8,9,10,11-hexahydro-3,10-dimethyl-5,11-dioxo-4-phenyl-5H-pyrido[2,3-g][1,5]diazonine]	–	247 to 249 °C
O=C(c1cc(-c2ccccc2)c2c(n1)OCCN(Cc1cc(C(F)(F)F)cc(C(F)(F)F)c1)C2=O)N1CCCCC1 [Reference Example 115, 4-[3,5-Bis(trifluoromethyl)benzyl]-2,3,4,5-tetrahydro-5-oxo-6-phenyl-8-piperidinocarbonylpyrido[3,2-f][1,4]oxazepine]	–	218 to 220 °C

The next lines start with the values.

IC50 (substance P receptor) [nM]	melting point	Structure (SMILES)
0.37	–	C[C@@H]1CCn2c(c(-c3ccc(F)cc3)c3cccnc3c2=O)C(=O)N(Cc2cc(C(F)(F)F)cc(C(F)(F)F)c2)C1 [Example 14, (9R)-7-[3,5-bis(trifluoromethyl)benzyl]-5-(4-fluorophenyl)-6,7,8,9,10,11-hexahydro-9-methyl-6,13-dioxo-13H-[1,4]diazosino[2,1-g][1,7]napththylidine]
0.17	–	Cc1ccc(-c2c3n(c(=O)c4ncccc24)CC[C@@H](C)CN(Cc2cc(OC(C)C)cc(OC(C)C)c2)C3=O)cc1 [Example 4, (9R)-7-[3,5-di(1-methylethyloxy)benzyl)-6,7,8,9,10,11-hexahydro-9-methyl-5-(4-methylphenyl)-6,13-dioxo-13H-[1,4]diazosino[2,1-g[]1,7]napththylidine]
0.69	–	CCOc1cc(CN2C[C@H](C)CCn3c(c(-c4ccc(C)cc4)c4cccnc4c3=O)C2=O)cc(OCC)c1 [Example 3, (9R)-7-(3,5-diethoxybenzyl)-6,7,8,9,10,11-hexahydro-9-methyl-5-(4-methylphenyl)-6,13-dioxo-13H-[1,4]diazosino[2,1-g][1,7]napththylidine]
–	148 to 149 °C	Cc1ccc(-c2ccnc3c2C(=O)N(Cc2ccccc2)C[C@H](C)CO3)cc1 [Reference Example 135, (S)-5-Benzyl-2,3,4,5-tetrahydro-3-methyl-7-(4-methylphenyl)-6-oxo-6H-pyrido[2,3-b][1,5]oxazocine]
–	145 °C (dec.)	CNC(=O)c1cc(-c2ccccc2)c2c(n1)OCCN(Cc1cc(C(F)(F)F)cc(C(F)(F)F)c1)C2=O [Reference Example 112, 4-[3,5-Bis(trifluoromethyl)benzyl]-N-methyl-2,3,4,5-tetrahydro-5-oxo-6-phenylpyrido[3,2-f][1,4]oxazepine-8-carboxamide]
–	164 to 165 °C	Cc1cc(-c2ccccc2)c2c(n1)OCCCN(Cc1cc(C(F)(F)F)cc(C(F)(F)F)c1)C2=O [Reference Example 88, 5-[3,5-Bis(trifluoromethyl)benzyl]-2,3,4,5-tetrahydro-9-methyl-6-oxo-7-phenyl-6H-pyrido[2,3-b][1,5]oxazocine]
